Results published in PMC10673058, “In Silico and In Vitro Search for Dual Inhibitors of the Trypanosoma brucei and Leishmania major Pteridine Reductase 1 and Dihydrofolate Reductase” (Molecules, 2023).
Where two headings read alike, the source gives them in different places.

What was measured:
Assay type in all cases: biochemical
[1] = target: T1, TbPTR1 (Trypanosoma brucei brucei, UniProt O76290); assay: Spectrophotometric enzyme inhibition assay, recombinant TbPTR1; details: for EC50: read-out: EC50 TbPTR1 (footnote a)
T1 construct: His6 (N); made in house; host or cells: E. coli BL21 (DE3), vector pET 15b::TbPTR1His (strain from the group of M. Paola Costi, Modena)
T1 sequence (O76290 1-268): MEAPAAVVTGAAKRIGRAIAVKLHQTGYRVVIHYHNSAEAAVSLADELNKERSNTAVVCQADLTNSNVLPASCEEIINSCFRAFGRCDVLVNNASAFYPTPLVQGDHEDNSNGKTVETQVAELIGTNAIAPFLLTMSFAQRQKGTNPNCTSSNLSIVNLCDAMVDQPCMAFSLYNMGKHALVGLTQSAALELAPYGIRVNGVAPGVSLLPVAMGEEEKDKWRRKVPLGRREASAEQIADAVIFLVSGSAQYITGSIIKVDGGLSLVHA
Method: (§1) Based on the in vitro assays against TbPTR1 and LmPTR1 performed in the previous works of our group, as well as the in silico results obtained from the current study, a total of 47 natural products were tested against the target enzymes. […] The concentration-effect curves for the IC50 and EC50 values that were obtained in the present study are depicted in Supplementary Materials Figures S21–S42.
(§2) The used TbPTR1 concentration was 3.23 mg/mL, with a specific activity of 0.03 U/mg. The measurements were carried out using the enzyme’s individual saturating concentrations for folic acid (8 μM) and NADPH (150 μM) in Buffer A (50 mM Tris/HCl (pH 7.6), 250 mM NaCl). For LmPTR1, the protein concentration was 5.02 mg/mL and the specific activity was calculated to be 0.29 U/mg. Buffer B (50 mM NaH2PO4 (pH 6.0), 100 mM NaCl) was used for all LmPTR1 measurements and the saturating concentrations amounted to 50 μM of folic acid and 200 μM of NADPH. The saturating conditions of the PTR1 enzymes were determined using the diagrams depicted in Figures S16 and S18 in the Supplementary Materials.
(§3) The inhibitory effect of the selected natural products was investigated by testing the DMSO solution of each compound at a constant concentration of 100 μM for TbPTR1 and 50 μM for LmPTR1, TbDHFR, and LmDHFR, as well as hDHFR. The concentrations of the cofactor and substrates were set at the previously determined saturating conditions (Section 4.2.5). Each test compound was incubated for 20 min with the respective enzyme and NADPH to ensure a sufficient interaction time before the reaction was induced by the addition of the substrate. The enzymatic activity was determined in duplicates and correlated with a reference that contained just DMSO, instead of an inhibitor. The enzymatic activity of the reference was normalized to 100%.
(§4) The half-maximal inhibitory concentration (IC50) of the natural products was determined in triplicate, using at least five different inhibitor concentrations against a reference containing no inhibitor. The enzymatic activity was documented and analyzed and the IC50 value was determined by nonlinear regression using GraphPad Prism 9 (GraphPad Software Inc., La Jolla, CA, USA).

[2] = target: T2, TbDHFR (Trypanosoma brucei brucei, UniProt Q27783); assay: Spectrophotometric enzyme inhibition assay, recombinant TbDHFR
T2 construct: pET 11D::TbDHFRHis vector design for the recombinant overexpression of TbDHFR in E. coli; His; made in house; host or cells: E. coli BL21(DE3), vector pET 11D::TbDHFRHis
T2 sequence (Q27783 28-238 limits assumed): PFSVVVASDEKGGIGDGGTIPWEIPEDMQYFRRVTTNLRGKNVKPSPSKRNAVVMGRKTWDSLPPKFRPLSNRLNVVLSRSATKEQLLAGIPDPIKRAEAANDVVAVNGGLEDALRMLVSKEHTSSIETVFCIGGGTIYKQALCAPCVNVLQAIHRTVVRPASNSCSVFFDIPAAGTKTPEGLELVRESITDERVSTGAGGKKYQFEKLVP
Method: Based on the in vitro assays against TbPTR1 and LmPTR1 performed in the previous works of our group, as well as the in silico results obtained from the current study, a total of 47 natural products were tested against the target enzymes.
The saturating conditions for TbDHFR and LmDHFR were determined using the diagrams depicted in Figures S17 and S19 in the Supplementary Materials.
as §3, §4

[3] = target: T3, LmPTR1 (Leishmania major, UniProt Q01782); assay: Spectrophotometric enzyme inhibition assay, recombinant LmPTR1
T3 construct: His6 (N); made in house; host or cells: E. coli BL21 (DE3), vector pET 15b::LmPTR1His (strain from the group of M. Paola Costi, Modena)
T3 sequence (Q01782 1-288): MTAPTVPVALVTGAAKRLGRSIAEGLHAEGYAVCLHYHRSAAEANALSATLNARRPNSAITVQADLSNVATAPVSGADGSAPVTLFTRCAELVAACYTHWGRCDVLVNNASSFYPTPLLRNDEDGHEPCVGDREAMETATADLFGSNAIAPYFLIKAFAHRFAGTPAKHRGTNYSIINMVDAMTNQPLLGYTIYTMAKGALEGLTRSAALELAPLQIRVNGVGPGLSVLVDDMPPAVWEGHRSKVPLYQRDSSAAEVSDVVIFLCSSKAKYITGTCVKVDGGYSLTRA
Method: as §1, §2, §3, §4

[4] = target: T4, LmDHFR (Leishmania major, UniProt P07382); assay: Spectrophotometric enzyme inhibition assay, recombinant LmDHFR
T4 construct: The DNA fragment encoding LmDHFR was amplified by Phusion DNA polymerase; His6 (N); made in house; host or cells: E. coli BL21(DE3), vector pET 11D::LmDHFRHis
T4 sequence (P07382 26-229 limits assumed): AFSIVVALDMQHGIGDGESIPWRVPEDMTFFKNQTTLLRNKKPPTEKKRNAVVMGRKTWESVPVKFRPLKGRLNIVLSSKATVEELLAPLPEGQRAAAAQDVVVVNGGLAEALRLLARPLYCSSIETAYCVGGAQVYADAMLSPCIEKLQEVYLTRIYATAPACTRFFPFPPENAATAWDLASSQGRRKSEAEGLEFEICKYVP
Method: as §1
The TbDHFR concentration was measured to be 0.04 mg/mL and a specific activity of 38.1 U/mg was calculated. The concentration of LmDHFR was 0.05 mg/mL with a specific activity of 56.2 U/mg. All measurements were carried out using the saturating concentrations for dihydrofolate (50 μM) and NADPH (150 μM) in Buffer C (50 mM Tris/HCl (pH 7.6), 250 mM NaCl, 10 mM BME). The saturating conditions for TbDHFR and LmDHFR were determined using the diagrams depicted in Figures S17 and S19 in the Supplementary Materials.
as §3, §4

[5] = target: T5, hDHFR (Homo sapiens, UniProt P00374); assay: Spectrophotometric enzyme inhibition assay, recombinant hDHFR (selectivity); details: for inhibition at 50 µM: set compound concentration of 50 μM, read-out: relative inhibition of hDHFR
T5 construct: His; host or cells: E. coli BL21 (DE3), vector pET 15b::hDHFRHis
T5 sequence (P00374 1-187): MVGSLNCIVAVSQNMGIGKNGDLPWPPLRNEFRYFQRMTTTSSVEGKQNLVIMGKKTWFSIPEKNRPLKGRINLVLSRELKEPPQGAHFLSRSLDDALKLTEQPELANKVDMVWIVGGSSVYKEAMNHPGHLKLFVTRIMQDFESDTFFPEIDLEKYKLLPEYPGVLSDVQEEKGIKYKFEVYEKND
Method: For 15 compounds, there was enough substance available to be tested in selectivity studies against hDHFR.
The used hDHFR concentration was 0.64 mg/mL, with a specific activity of 0.62 U/mg. All measurements were carried out using the saturating concentrations for dihydrofolate (100 μM) and NADPH (50 μM) in Buffer C (50 mM Tris/HCl (pH 7.6), 250 mM NaCl, 10 mM BME). The saturating conditions for hDHFR were determined using the diagrams depicted in Figure S20 in the Supplementary Materials.
as §3, §4

[6] = target: T1, TbPTR1; assay: Dilution assay for reversible/irreversible inhibition of TbPTR1; details: inhibitor concentration near IC50
Text: The catalytic center of TbPTR1 contains a cysteine residue (TbCys168) in close proximity to the substrate/inhibitor binding site. In our previous publication, we mentioned the possibility that Sesquiterpene Lactones 1 and 2 might interact as Michael acceptors with TbCys168 by covalent bond formation with its thiol group. Therefore, we have now subjected a selection of natural product inhibitors containing Michael acceptors (1, 2, 5, 17) to initial testing for irreversible inhibition, according to the dilution method described by Bisswanger (see Section 4.2.9).
In this method, the enzyme activity of the respective enzyme-inhibitor mixture is measured before and after a defined dilution (in this study, 1:2). In the absence of an inhibitor, dilution decreases the enzyme activity proportionally to the dilution factor. […] A reversible inhibitor, on the other hand, will dissociate upon dilution, resulting in a weaker decrease in activity than what corresponds to the dilution effect. In the presence of Inhibitors 1 and 2, the decrease in TbPTR1 activity upon the 1:2 dilution was almost proportional to the dilution factor, i.e., only 9.5% and 6.8% activity, respectively, were recovered compared to the reference. This would indeed support an irreversible mechanism of inhibition. […] However, further investigations on these compounds’ mechanisms of inhibition are under way.
To assign an either reversible or irreversible inhibition mechanism to selected compounds, the enzymatic activity of an enzyme-inhibitor mixture was determined before and after a defined dilution, using the reaction conditions described in Section 4.2.5 [16].
Two equivalent solutions with the respective enzyme and inhibitor combination were prepared, one of them being diluted with buffer in a 1:2 ratio shortly before the reaction was started by adding the substrate. The respective inhibitor concentration was set near the IC50 value. The substrate and cofactor concentrations were kept constant in both reaction mixtures. All measurements were carried out in duplicates against a reference containing DMSO instead of the inhibitor. […] If a reversible inhibitor was present, a higher degree of activity recovery (>>10%) could be observed than what corresponds to the dilution factor due to the partial dissociation of the inhibitor from the enzyme upon dilution. The percentual changes in the enzymatic activity of the undiluted and diluted test solution were compared and evaluated to decide the mechanism of inhibition.

Compound | IC50 ([1]; read-out: IC50 TbPTR1) [µM] | IC50 ([2]; read-out: IC50 TbDHFR) [nM] | IC50 ([3]; read-out: IC50 LmPTR1) [µM] | IC50 [5] [µM] | also measured
OC[C@H]1O[C@@H](Oc2c(O)cc(O)cc2/C=C/c2ccc(O)cc2)[C@H](O)[C@@H](O)[C@@H]1O [Compound 10] | 83.6 | > 50000 | > 50 |  | IC50 ([4]; read-out: IC50 LmDHFR): > 50000 nM
CCC/C=C\C/C=C\CCCCCCCc1cccc(O)c1C(=O)O [Compound 11] | 20.1 | 200 | 10.2 | 2.4 | IC50 ([4]; read-out: IC50 LmDHFR): 2600 nM; inhibition at 50 µM [5]: > 50%
C=CC/C=C\C/C=C\CCCCCCCc1cccc(O)c1C(=O)O [Compound 12] | 21.7 |  |  |  | 
COc1c(O)cc2c(=O)c3c(O)cc(O)c(CC=C(C)C)c3oc2c1CC=C(C)C [Compound 13] | 74.4 | 600 |  |  | 
CC(C)=CCc1c(O)cc2oc3cc(O)c(O)c(CC=C(C)C)c3c(=O)c2c1O [Compound 14, g-mangostin] |  |  |  | 2.7 | IC50 [1]: 71 µM; IC50 [2]: 200 nM; IC50 [3]: 10 µM; IC50 [4]: 1500 nM; inhibition at 50 µM [5]: > 50%
CC(C)=CCC/C(C)=C/COc1ccc2oc3cc(O)cc(O)c3c(=O)c2c1 [Compound 15] |  | 2900 | > 50 |  | EC50 [1]: 32.4 µM
CC(C)=CCc1c(O)ccc(C(=O)CCc2ccc(O)cc2)c1O [Compound 16] | 64.6 | 11700 | > 50 |  | 
O=c1[nH]c(=O)n([C@@H]2O[C@H](CO)[C@@H](O)[C@H]2O)c2nc(-c3ccc(Cl)cc3)cnc12 [Compound 18] | 58.6 | > 50000 |  |  | 
COc1ccc2c(c1)CCN=C2Cc1cc(OCc2ccccc2)c(OC)cc1C [Compound 19] | 75.1 | > 50000 |  |  | 
CCC(C)C(=O)c1c(O)c(C/C=C(\C)CCC=C(C)C)c(O)c2c([C@H](CC)OC(C)=O)cc(=O)oc12 (stereo partly drawn) [Compound 20, surangin B] | 28.3 | 2900 |  | > 50 | EC50 ([3]; read-out: EC50 LmPTR1 (footnote a)): 35.1 µM; EC50 ([4]; read-out: EC50 LmDHFR (footnote a)): 4.7 µM
COc1c(CC=C(C)C)c(O)c([C@H](CC(C)C)c2c(O)c(CC=C(C)C)c(O)c(C(C)=O)c2O)c(O)c1C(C)=O [Compound 21, acrovestone] |  | 2100 | > 50 | 19.8 | EC50 [1]: 36.8 µM; inhibition at 50 µM [5]: > 50%
COc1cc(C2OC(=O)C3C(c4ccc(O)c(OC)c4)OC(=O)C23)ccc1O (stereo not drawn) [Compound 22] |  | > 50000 | 30.2 | > 50 | EC50 [1]: 37.8 µM; IC50 ([4]; read-out: IC50 LmDHFR): > 50000 nM
COc1cc(-c2oc3c(OC)c(O)cc(O)c3c(=O)c2OC)c(OC)c(OC)c1OC [Compound 23, 5,7-dihydroxy-3,3′,4′,5′,6′,8-hexamethoxyflavone] |  |  |  |  | TbPTR1 activity recovered upon 1:2 dilution compared to the reference [6]: about 33%
